Source: ChEMBL document CHEMBL1949526, “Cyclic hydroxyamidines as amide isosteres: discovery of oxadiazolines and oxadiazines as potent and highly efficacious γ-secretase modulators in vivo” (J Med Chem, 2012)
Calls of active or inactive are those of the source. The calls are words filed in the database; no cut-off is given here.

How the values were obtained:
[1] = target: T1, Gamma-secretase (Homo sapiens) (UniProt Q96BI3+Q9NZ42+Q8WW43+P49768+Q92542+P49810); test: Modulation of gamma-secretase-mediated cleavage of human APP Swedish and London mutation expressed in HEK293 cells assessed as reduction of total amyloid beta/amyloid beta42 ratio after 5 hrs by sandwich immunoassay; format: cell-based
[2] = target: Gamma-secretase; test: Modulation of gamma-secretase-mediated cleavage of human APP Swedish and London mutation expressed in HEK293 cells assessed as inhibition of amyloid beta42 production after 5 hrs by sandwich immunoassay; format: cell-based
[3] = target: Gamma-secretase; test: Modulation of gamma-secretase-mediated cleavage of human APP Swedish and London mutation expressed in HEK293 cells assessed as reduction of total amyloid beta level after 5 hrs by sandwich immunoassay; format: cell-based
[4] = species on record: Canis familiaris; test: Cardiotoxicity in dog assessed as effect on electrocardiographic QTc interval at compound concentration required for pharmacological effect; format: toxicity, organism-based, Canis lupus familiaris; conditions: in vivo
[5] = test system: Rattus norvegicus; test: Antialzheimer activity in rat assessed as reduction in amyloid beta42 level in cortex at 30 mg/kg, po; format: functional; design: scale not given: the % may be the effect or the level left
[6] = target: Voltage-gated inwardly rectifying potassium channel KCNH2 (Homo sapiens, UniProt Q12809); test: Inhibition of human ERG by cell based voltage clamp assay
[7] = Permeability from apical to basolateral side of human Caco2 cells; format: ADME, cell-based; conditions: Caco-2, read-out: permeability
[8] = test system: Rattus norvegicus; test: Antialzheimer activity in rat assessed as reduction in amyloid beta42 level in CSF at 30 mg/kg, po; format: functional; design: scale not given: the % may be the effect or the level left
[9] = Dissociation constant, pKa of the compound; format: physicochemical
[10] = test system: Rattus norvegicus; test: Antialzheimer activity in po dosed CD rat assessed as reduction in amyloid beta42 level in plasma after 3 hrs by alphaLISA analysis relative to amyloid beta40 level; format: functional, organism-based
[11] = target: T1, Gamma-secretase (Homo sapiens); test: Modulation of gamma-secretase-mediated cleavage of human APP Swedish and London mutation expressed in HEK293 cells assessed as inhibition of amyloid beta40 production at 10 uM by SELDI-MS analysis; format: cell-based
[12] = test system: Rattus norvegicus; test: Antialzheimer activity in CD rat assessed as reduction in amyloid beta42 level in cortex administered as po for 6 days by alphaLISA analysis relative to total amyloid beta level; format: functional, organism-based
[13] = target: T1, Gamma-secretase (Homo sapiens); test: Modulation of gamma-secretase-mediated cleavage of human APP Swedish and London mutation expressed in HEK293 cells assessed as inhibition of amyloid beta42 production at 10 uM by SELDI-MS analysis; format: cell-based
[14] = test system: Rattus norvegicus; test: Antialzheimer activity in po dosed CD rat assessed as reduction in amyloid beta42 level in plasma after 3 hrs by alphaLISA analysis relative to total amyloid beta level; format: functional, organism-based
[15] = test system: Rattus norvegicus; test: Antialzheimer activity in CD rat assessed as reduction in amyloid beta42 level in plasma administered as po for 6 days by alphaLISA analysis relative to total amyloid beta40 level; format: functional, organism-based
[16] = test system: Rattus norvegicus; test: Antialzheimer activity in CD rat assessed as reduction in amyloid beta42 level in CSF administered as po for 6 days by alphaLISA analysis relative to total amyloid beta40 level; format: functional, organism-based
[17] = test system: Rattus norvegicus; test: Antialzheimer activity in CD rat assessed as reduction in amyloid beta42 level in plasma administered as po for 6 days by alphaLISA analysis relative to total amyloid beta level; format: functional, organism-based
[18] = test system: Rattus norvegicus; test: Antialzheimer activity in po dosed CD rat assessed as reduction in amyloid beta42 level in CSF after 3 hrs by alphaLISA analysis relative to amyloid beta40 level; format: functional, organism-based
[19] = test system: Rattus norvegicus; test: Antialzheimer activity in po dosed CD rat assessed as reduction in amyloid beta42 level in CSF after 3 hrs by alphaLISA analysis relative to total amyloid beta level; format: functional, organism-based
[20] = test system: Rattus norvegicus; test: Antialzheimer activity in po dosed CD rat assessed as reduction in amyloid beta42 level in cortex after 3 hrs by alphaLISA analysis relative to total amyloid beta level; format: functional, organism-based
[21] = test system: Rattus norvegicus; test: Antialzheimer activity in po dosed CD rat assessed as reduction in amyloid beta42 level in cortex after 3 hrs by alphaLISA analysis relative to amyloid beta40 level; format: functional, organism-based
[22] = target: T1, Gamma-secretase (Homo sapiens); test: Modulation of gamma-secretase-mediated cleavage of human APP Swedish and London mutation expressed in HEK293 cells assessed as inhibition of amyloid beta39 production at 10 uM by SELDI-MS analysis; format: cell-based
[23] = target: T1, Gamma-secretase (Homo sapiens); test: Modulation of gamma-secretase-mediated cleavage of human APP Swedish and London mutation expressed in HEK293 cells assessed as increase in amyloid beta38 production at 10 uM by SELDI-MS analysis; format: cell-based
[24] = test system: Rattus norvegicus; test: Antialzheimer activity in CD rat assessed as reduction in amyloid beta42 level in cortex administered as po for 6 days by alphaLISA analysis relative to total amyloid beta40 level; format: functional, organism-based
[25] = test system: Rattus norvegicus; test: Antialzheimer activity in CD rat assessed as reduction in amyloid beta42 level in CSF administered as po for 6 days by alphaLISA analysis relative to total amyloid beta level; format: functional, organism-based
[26] = target: T1, Gamma-secretase (Homo sapiens); test: Modulation of gamma-secretase-mediated cleavage of human APP Swedish and London mutation expressed in HEK293 cells assessed as increase in amyloid beta37 production at 10 uM by SELDI-MS analysis; format: cell-based
[27] = Chemical stability of the compound in aqueous 0.1 N HCl/MeOH (1:1) assessed as deterioration of enantiomaric excess after 7 days; format: physicochemical; conditions: buffer, 168 h
[28] = Chemical stability of the compound in aqueous 0.1 N HCl assessed as decomposition to corresponding acetophenone after 3 hrs; format: physicochemical; conditions: buffer
[29] = Chemical stability of the compound under neutral conditions; format: physicochemical
[30] = target: Gamma-secretase; test: Modulation of gamma-secretase-mediated cleavage of human APP Swedish and London mutation expressed in HEK293 cells assessed as inhibition of amyloid beta40 production after 5 hrs by sandwich immunoassay; format: cell-based
[31] = Aqueous solubility of the compound at pH 3.5; format: physicochemical; conditions: aqueous medium
[32] = Lipophilicity, log D of the compound at pH 7.4; format: physicochemical; conditions: buffer

Voltage-gated inwardly rectifying potassium channel KCNH2, sequence (Q12809 whole entry): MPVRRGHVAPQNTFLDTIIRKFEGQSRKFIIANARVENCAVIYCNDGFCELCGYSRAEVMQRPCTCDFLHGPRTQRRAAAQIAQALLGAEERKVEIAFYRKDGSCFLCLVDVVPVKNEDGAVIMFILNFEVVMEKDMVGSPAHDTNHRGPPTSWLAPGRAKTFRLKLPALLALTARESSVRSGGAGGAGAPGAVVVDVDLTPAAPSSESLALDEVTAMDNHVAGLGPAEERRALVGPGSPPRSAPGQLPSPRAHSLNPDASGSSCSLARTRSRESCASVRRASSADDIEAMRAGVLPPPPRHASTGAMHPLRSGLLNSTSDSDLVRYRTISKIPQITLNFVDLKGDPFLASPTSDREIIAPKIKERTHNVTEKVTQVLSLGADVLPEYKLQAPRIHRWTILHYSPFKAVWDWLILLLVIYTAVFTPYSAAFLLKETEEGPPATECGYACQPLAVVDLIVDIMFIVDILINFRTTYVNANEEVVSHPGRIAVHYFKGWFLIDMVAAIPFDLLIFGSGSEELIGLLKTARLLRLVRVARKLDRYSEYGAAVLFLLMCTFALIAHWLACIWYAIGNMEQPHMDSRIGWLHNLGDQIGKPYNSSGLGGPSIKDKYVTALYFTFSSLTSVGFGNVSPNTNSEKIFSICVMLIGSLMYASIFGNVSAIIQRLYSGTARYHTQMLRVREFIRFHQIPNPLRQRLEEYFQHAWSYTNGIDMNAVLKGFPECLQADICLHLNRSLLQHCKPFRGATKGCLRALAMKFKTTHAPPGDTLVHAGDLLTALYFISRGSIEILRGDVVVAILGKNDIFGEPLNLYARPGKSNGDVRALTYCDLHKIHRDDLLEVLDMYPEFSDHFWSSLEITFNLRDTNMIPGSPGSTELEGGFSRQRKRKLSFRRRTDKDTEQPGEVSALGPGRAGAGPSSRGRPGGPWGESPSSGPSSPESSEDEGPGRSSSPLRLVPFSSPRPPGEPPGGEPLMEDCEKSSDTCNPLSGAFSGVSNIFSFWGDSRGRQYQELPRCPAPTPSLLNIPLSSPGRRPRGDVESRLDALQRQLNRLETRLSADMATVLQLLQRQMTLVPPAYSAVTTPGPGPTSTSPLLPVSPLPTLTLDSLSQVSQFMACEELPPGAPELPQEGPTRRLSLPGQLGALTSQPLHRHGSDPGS

Compound `COc1cc(/C=C2\CCCN3C2=NOC3(CO)c2ccc(C#N)cc2)ccc1-n1cnc(C)c1` (single isomer, unassigned) has a Ratio IC50 [1] greater than 171, an IC50 [2] of 117 nM and an IC50 [3] greater than 20000 nM.

For `COc1cc(/C=C2\CCCN([C@@H](C)c3ccc(F)cc3)C2=O)ccc1-n1cnc(C)c1`, the Activity [4] was “Non-toxic”, the Activity [5] was 44% and the IC50 [6] was 1200 nM. For the same compound, the Papp A→B [7] was 57.9 ×10⁻⁶ cm/s and the Activity [8] was 55%.

With `c1ccc(-n2ccnc2)cc1` the pKa [9] was 5.1.

In the case of `COc1cc(/C=C2\CCCN3C2=NOC[C@@H]3c2cc(F)c(F)c(F)c2)ccc1-n1cnc(C)c1`, the Activity [10] is reported as “Dose-dependent effect”, the Activity [11] is reported as “Active” and the Activity [12] is reported as “Dose-dependent effect”. The Activity [13] was “Active”, the Activity [14] was “Dose-dependent effect” and the Activity [15] was “Dose-dependent effect”. For the same compound, the Activity [16] was “Dose-dependent effect”, the Activity [17] was “Dose-dependent effect” and the Activity [18] was “Dose-dependent effect”. For the same compound, the Activity [19] was “Dose-dependent effect”, the Activity [20] was “Dose-dependent effect” and the Activity [21] was “Dose-dependent effect”. For the same compound, the Activity [22] was “Active”, the Activity [23] was “Active” and the Activity [24] was “Dose-dependent effect”. For the same compound, the Activity [25] was “Dose-dependent effect” and the Activity [26] was “Active”.

With `COc1cc(/C=C2\CCCN3C2=NO[C@@]3(CO)c2ccc(F)cc2)ccc1-n1cnc(C)c1` the IC50 [2] was 7640 nM, the IC50 [3] was greater than 20000 nM and the pKa [9] was 5.8. For the same compound, the Stability [27] was “Stable”.

For `COc1cc(/C=C2\CCCN3C2=NOC3(CO)c2cc(F)c(F)c(F)c2)ccc1-n1cnc(C)c1` (single isomer, unassigned), the Ratio IC50 [1] was 1020, the IC50 [2] was 15 nM and the IC50 [3] was 15800 nM.

Work on `COc1cc(/C=C2\CCCN3C2=NOC3(CO)c2ccccc2F)ccc1-n1cnc(C)c1` (single isomer, unassigned) yielded a Ratio IC50 [1] of 189, an IC50 [2] of 53 nM and an IC50 [3] of 10100 nM.

Work on `COC[C@]1(c2ccc(F)cc2)ON=C2/C(=C/c3ccc(-n4cnc(C)c4)c(OC)c3)CCCN21` yielded a Ratio IC50 [1] of 144, an IC50 [2] of 122 nM and an IC50 [3] of 17500 nM.

`COc1cc(/C=C2\CCCN3C2=NOC3(CO)c2cc(F)cc(F)c2)ccc1-n1cnc(C)c1` (single isomer, unassigned) showed a Ratio IC50 [1] of 316, an IC50 [2] of 21 nM and an IC50 [3] of 6750 nM.

For `COc1cc(/C=C2\CCCN3C2=NO[C@]3(CN(C)C(C)=O)c2ccc(F)cc2)ccc1-n1cnc(C)c1`, the Ratio IC50 [1] was greater than 101, the IC50 [2] was 199 nM and the IC50 [3] was greater than 20000 nM.

`COc1cc(/C=C2\CCCN3C2=NO[C@@]3(c2ccc(F)cc2)[C@H](C)O)ccc1-n1cnc(C)c1` showed a Ratio IC50 [1] greater than 225, an IC50 [2] of 89 nM and an IC50 [3] greater than 20000 nM.

Compound `CNC[C@]1(c2ccc(F)cc2)ON=C2/C(=C/c3ccc(-n4cnc(C)c4)c(OC)c3)CCCN21` has a Ratio IC50 [1] greater than 105, an IC50 [2] of 191 nM and an IC50 [3] greater than 20000 nM.

For `COc1cc(/C=C2\CCCN3C2=NO[C@]3(CN(C)C)c2ccc(F)cc2)ccc1-n1cnc(C)c1`, the Ratio IC50 [1] was 96, the IC50 [2] was 196 nM and the IC50 [3] was 18800 nM.

In the case of `COCCCN(C(=O)/C=C/c1ccc(-n2cnc(C)c2)c(OC)c1)c1cccc2ccccc12`, the IC50 [2] is reported as 60 nM.

In the case of `COCCCN1C(/C=C/c2ccc(-n3cnc(C)c3)c(OC)c2)=NOC1(C)c1ccc(F)cc1` (racemic), the Stability [28] is reported as “Unstable”, the IC50 [2] is reported as 187 nM and the Stability [29] is reported as “Stable”. For the same compound, the IC50 [30] was 2000 nM.

`COc1cc(/C=C2\CCCN3C2=NO[C@]3(CNCCO)c2ccc(F)cc2)ccc1-n1cnc(C)c1` showed a Ratio IC50 [1] greater than 250, an IC50 [2] of 80 nM and an IC50 [3] greater than 20000 nM.

Work on `COc1cc(/C=C2\CCCN(C3(c4ccccc4)CCOCC3)C2=O)ccc1-n1cnc(C)c1` yielded an IC50 [2] of 56 nM.

Compound `COc1cc(/C=C2\CCCN3C2=NOC3(CO)c2ccccc2)ccc1-n1cnc(C)c1` (single isomer, unassigned) has a Ratio IC50 [1] of 33, an IC50 [2] of 96 nM and an IC50 [3] of 3210 nM.

Work on `COc1cc(/C=C2\CCCN3C2=NOC3(CO)c2cccc(F)c2)ccc1-n1cnc(C)c1` (single isomer, unassigned) yielded a Ratio IC50 [1] of 280, an IC50 [2] of 26 nM and an IC50 [3] of 7160 nM.

In the case of `COc1cc(/C=C2\CCCN3C2=NO[C@@]3(c2ccc(F)cc2)[C@@H](C)O)ccc1-n1cnc(C)c1`, the Ratio IC50 [1] is reported as 350, the IC50 [2] is reported as 46 nM and the IC50 [3] is reported as 16200 nM.

With `COc1cc(/C=C2\CCCN3C2=NOC3(CO)c2ccc(F)cn2)ccc1-n1cnc(C)c1` (single isomer, unassigned) the Ratio IC50 [1] was 192, the IC50 [2] was 103 nM and the IC50 [3] was 19700 nM.

Compound `COc1cc(/C=C2\CCCN3C2=NOC3(CO)c2cncc(F)c2)ccc1-n1cnc(C)c1` (single isomer, unassigned) has a Ratio IC50 [1] greater than 189, an IC50 [2] of 106 nM and an IC50 [3] greater than 20000 nM.

Work on `COc1cc(/C=C2\CCCN3C2=NO[C@]3(CN(C)S(C)(=O)=O)c2ccc(F)cc2)ccc1-n1cnc(C)c1` yielded a Ratio IC50 [1] of 269, an IC50 [2] of 72 nM and an IC50 [3] of 19300 nM.

For `COc1cc(/C=C2\CCCN3C2=NOC[C@@H]3c2cc(F)c(F)c(F)c2)ccc1-n1cnc(C)c1.Cl`, the solubility [31] was greater than 100 mM and the logD [32] was 5.29.
